The target of experiment [1] is T1, LRRK2 kinase in SH-SY5Y cells over-expressing recombinant full length LRRK2 (Homo sapiens, UniProt Q5S007).
T1 construct: A BacMam virus expressing full length recombinant LRRK2 was purchased from Invitrogen; host or cells: SH-SY5Y human neuroblastoma cells transduced with BacMam LRRK2 virus
The experiment is described as follows: Recombinant cellular LRRK2 AlphaScreen assay (LRRK2 Ser935 phosphorylation). The experiment is classed as cell-based. The following applies: 60 min. An outline of the steps: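 SH-SY5Y cells transduced with BacMam full-length LRRK2 (MOI 50) for 24 h, then treated 60 min at 37 °C with compound (11-point 1:4 series, top 10 uM, 0.1% DMSO). Lysates probed by AlphaScreen for pSer935 vs total LRRK2; values fitted to a sigmoidal dose-response model.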
A general note: In Alpha technology, singlet oxygen from a donor bead excites a nearby acceptor bead.

For experiment [2], the target named is T2, full length G2019 human LRRK2 (Homo sapiens, UniProt Q5S007, R50H).
T2 construct: made in house; host or cells: HEK293 6E cells transduced with BacMam virus (virus generated in Sf9 cells)
T2 sequence (Q5S007 with tags, fused parts or gaps R50H): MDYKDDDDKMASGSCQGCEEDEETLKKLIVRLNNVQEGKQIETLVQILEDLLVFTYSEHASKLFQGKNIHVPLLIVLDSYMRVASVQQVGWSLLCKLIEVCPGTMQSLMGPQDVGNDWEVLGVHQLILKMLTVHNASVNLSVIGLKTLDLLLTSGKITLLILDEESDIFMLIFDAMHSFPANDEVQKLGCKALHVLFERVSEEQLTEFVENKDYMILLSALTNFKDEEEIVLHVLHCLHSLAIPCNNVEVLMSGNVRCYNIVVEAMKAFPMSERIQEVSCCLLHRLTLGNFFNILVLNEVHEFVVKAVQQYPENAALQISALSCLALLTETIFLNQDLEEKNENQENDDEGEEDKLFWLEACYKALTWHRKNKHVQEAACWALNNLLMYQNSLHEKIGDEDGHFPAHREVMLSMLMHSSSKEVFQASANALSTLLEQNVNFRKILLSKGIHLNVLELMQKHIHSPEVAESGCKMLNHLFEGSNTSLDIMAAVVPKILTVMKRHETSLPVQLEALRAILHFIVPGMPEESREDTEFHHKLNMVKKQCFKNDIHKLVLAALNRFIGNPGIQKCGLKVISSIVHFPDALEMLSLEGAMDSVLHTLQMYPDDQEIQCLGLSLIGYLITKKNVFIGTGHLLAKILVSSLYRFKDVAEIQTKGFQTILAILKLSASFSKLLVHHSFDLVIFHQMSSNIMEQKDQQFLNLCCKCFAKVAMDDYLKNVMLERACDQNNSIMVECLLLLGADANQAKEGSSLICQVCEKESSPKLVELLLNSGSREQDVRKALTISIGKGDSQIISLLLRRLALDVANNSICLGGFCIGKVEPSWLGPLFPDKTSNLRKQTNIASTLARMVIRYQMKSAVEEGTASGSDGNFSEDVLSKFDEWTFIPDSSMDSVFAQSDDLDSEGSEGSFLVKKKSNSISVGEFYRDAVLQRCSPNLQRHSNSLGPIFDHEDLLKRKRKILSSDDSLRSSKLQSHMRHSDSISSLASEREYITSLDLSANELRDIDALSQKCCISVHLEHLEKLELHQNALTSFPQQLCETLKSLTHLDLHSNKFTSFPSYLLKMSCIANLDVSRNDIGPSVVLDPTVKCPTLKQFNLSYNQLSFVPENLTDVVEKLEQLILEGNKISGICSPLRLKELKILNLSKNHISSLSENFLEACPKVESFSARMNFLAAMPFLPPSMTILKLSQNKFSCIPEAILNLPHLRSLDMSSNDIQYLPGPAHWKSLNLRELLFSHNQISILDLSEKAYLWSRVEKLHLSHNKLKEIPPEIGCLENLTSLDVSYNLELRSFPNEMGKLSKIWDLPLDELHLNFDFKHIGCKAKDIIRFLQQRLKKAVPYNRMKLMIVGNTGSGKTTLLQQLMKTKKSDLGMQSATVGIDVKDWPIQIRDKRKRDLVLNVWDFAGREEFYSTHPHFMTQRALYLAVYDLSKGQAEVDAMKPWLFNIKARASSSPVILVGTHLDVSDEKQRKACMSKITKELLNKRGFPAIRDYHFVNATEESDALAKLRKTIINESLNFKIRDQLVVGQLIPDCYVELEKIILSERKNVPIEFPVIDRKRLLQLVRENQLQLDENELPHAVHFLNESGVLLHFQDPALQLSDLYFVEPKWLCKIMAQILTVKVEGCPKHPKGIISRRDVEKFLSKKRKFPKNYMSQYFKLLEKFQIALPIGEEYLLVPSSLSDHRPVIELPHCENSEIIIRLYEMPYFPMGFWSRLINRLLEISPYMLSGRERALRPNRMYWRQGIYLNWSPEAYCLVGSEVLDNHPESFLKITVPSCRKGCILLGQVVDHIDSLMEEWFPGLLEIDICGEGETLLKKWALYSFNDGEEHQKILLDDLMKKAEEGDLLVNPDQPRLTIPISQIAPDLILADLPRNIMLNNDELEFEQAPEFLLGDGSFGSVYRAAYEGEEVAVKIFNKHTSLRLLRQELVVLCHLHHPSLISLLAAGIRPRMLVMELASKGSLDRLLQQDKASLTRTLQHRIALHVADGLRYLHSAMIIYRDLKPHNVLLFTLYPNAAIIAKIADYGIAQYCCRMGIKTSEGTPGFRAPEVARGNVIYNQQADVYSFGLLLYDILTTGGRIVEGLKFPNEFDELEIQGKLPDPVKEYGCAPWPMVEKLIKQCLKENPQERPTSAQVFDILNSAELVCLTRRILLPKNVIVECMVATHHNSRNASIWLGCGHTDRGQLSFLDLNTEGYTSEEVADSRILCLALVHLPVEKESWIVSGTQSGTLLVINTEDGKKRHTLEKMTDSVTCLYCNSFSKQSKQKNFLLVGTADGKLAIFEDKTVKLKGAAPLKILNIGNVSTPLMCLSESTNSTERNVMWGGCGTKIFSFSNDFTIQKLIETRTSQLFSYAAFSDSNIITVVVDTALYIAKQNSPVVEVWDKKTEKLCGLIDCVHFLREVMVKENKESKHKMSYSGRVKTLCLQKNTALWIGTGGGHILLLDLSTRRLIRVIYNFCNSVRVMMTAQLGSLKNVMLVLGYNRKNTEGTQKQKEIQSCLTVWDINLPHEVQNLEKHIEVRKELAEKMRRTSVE
The experiment is described as follows: Full length G2019 human LRRK2 inhibition mass spectrometry assay. The experiment is classed as biochemical. The following applies: LRRKtide to phospho-LRRKtide conversion, RapidFire MS, 2 mM ATP. An outline of the steps:
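Purified full-length Flag-tagged G2019 LRRK2, ~25 nM, with 25 μM LRRKtide and 2 mM ATP in 50 mM Hepes pH 7.2, 10 mM MgCl2, 150 mM NaCl, 1 h at room temperature. Quenched with formic acid; phospho- and unphosphorylated LRRKtide measured by RapidFire MS. pIC50 from 4-parameter fit of % conversion, 11 points, top 100 μM.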

T1 sequence (Q5S007 whole entry): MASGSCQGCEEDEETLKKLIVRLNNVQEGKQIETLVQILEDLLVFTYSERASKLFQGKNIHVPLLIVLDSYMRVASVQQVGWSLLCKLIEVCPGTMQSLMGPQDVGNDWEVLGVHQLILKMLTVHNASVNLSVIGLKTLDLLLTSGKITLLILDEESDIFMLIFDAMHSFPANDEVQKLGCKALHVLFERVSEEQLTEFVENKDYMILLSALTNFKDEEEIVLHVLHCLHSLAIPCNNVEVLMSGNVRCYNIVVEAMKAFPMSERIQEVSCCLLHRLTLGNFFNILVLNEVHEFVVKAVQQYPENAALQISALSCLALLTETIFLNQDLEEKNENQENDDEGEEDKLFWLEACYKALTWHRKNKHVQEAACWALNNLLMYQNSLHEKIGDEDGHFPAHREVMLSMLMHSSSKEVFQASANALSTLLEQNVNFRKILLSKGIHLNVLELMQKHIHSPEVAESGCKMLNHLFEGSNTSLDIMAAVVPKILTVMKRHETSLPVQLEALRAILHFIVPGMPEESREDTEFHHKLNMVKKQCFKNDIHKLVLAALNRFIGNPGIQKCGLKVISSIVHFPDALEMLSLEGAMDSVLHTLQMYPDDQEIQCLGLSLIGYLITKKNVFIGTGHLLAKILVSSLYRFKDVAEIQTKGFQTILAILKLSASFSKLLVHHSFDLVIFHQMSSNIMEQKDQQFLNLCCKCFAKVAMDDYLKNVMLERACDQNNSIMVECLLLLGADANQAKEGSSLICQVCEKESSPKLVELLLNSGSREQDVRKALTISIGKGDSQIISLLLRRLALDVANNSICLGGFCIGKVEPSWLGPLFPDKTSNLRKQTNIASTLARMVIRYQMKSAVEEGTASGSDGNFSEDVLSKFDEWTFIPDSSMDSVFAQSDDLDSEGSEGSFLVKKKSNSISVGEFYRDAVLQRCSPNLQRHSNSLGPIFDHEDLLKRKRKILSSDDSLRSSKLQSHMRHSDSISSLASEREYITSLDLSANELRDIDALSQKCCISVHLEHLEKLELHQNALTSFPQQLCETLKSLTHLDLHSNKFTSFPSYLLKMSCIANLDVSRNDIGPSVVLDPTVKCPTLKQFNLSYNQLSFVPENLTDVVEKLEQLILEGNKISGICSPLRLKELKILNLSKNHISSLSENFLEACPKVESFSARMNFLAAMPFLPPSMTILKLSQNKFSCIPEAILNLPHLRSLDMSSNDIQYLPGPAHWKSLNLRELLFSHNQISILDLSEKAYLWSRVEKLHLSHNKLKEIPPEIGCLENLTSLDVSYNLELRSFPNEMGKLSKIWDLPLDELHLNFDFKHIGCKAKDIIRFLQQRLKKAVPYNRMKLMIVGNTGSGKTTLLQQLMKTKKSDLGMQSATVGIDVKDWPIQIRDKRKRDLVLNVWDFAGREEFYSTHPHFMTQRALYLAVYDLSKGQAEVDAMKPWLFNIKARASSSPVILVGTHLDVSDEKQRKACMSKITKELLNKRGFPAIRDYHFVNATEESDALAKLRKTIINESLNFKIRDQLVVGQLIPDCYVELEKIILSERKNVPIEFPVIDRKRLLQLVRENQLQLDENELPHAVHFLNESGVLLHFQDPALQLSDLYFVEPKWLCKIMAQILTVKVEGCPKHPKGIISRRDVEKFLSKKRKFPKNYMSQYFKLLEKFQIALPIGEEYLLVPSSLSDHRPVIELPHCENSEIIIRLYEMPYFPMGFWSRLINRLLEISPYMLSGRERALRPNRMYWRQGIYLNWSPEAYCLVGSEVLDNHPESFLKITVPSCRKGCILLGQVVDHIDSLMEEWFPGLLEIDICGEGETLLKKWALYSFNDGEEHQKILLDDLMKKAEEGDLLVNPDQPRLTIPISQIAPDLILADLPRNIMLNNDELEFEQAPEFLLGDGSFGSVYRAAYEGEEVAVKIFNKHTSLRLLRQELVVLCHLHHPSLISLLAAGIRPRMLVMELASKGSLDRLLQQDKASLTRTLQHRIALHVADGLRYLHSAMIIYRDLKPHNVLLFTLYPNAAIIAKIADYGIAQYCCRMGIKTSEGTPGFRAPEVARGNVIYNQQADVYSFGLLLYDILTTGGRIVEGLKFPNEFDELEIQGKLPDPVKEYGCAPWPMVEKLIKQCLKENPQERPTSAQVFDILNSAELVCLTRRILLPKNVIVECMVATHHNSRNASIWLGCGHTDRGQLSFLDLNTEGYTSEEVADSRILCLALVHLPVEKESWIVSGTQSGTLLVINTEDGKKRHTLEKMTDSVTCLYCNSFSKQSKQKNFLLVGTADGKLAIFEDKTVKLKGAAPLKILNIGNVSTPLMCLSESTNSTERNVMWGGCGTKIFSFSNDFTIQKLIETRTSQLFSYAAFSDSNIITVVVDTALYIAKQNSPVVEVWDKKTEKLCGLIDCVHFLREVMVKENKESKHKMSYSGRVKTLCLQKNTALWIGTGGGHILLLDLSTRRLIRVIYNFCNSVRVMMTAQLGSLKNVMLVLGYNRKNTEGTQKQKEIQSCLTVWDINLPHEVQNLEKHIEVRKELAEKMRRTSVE

As for `Cc1c2c(nn1C1CCC(O)CC1)OCCCNc1nc(ncc1Cl)N2` (single isomer, unassigned) [E90, 4-{14-chloro-4-methyl-8-oxa-2,5,6,12,16,17-hexaazatricyclo[11.3.1.0^3,7]heptadeca-1(16),3,6,13(17),14-pentaen-5-yl}cyclohexan-1-ol], the IC50 in experiment [1] and in experiment [2] was at most 100 nM each time.

`Cc1c2c(nn1C1CN(C3CCOCC3)C1)OCC[C@@H](C)Nc1nc(ncc1Cl)N2` [E365, (11R)-14-Chloro-4,11-dimethyl-5-[1-(oxan-4-yl)azetidin-3-yl]-8-oxa-2,5,6,12,16,17-hexaazatricyclo[11.3.1.0^3,7]heptadeca-1(16), 3,6,13(17),14-pentaene]: the IC50 in experiment [1] and in experiment [2] was at most 100 nM each time.

For the molecule `Cc1c2c(nn1C1CCOCC1)OCCCNc1nc(ncc1Cl)N2` [E1, 14-Chloro-4-methyl-5-(oxan-4-yl)-8-oxa-2,5,6,12,16,17-hexaazatricyclo [11.3.1.0^3,7]heptadeca-1(16),3,6,13(17),14-pentaene], the IC50 in experiment [1] and in experiment [2] was at most 100 nM in each case.

`Cc1c2c(nn1C(C)(C)C#N)OCCCNc1nc(ncc1Cl)N2` [E191, 2-{14-Chloro-4-methyl-8-oxa-2,5,6,12,16,17-hexaazatricyclo [11.3.1.0^3,7]heptadeca-1(16),3,6,13(17),14-pentaen-5-yl}-2-methylpropanenitrile]: the IC50 in experiment [1] and in experiment [2] was at most 100 nM each time.

As for `Cc1c2c(nn1C1CCN(C3COC3)CC1(F)F)OCCCNc1nc(ncc1Cl)N2` (single isomer, unassigned) [E406, 14-Chloro-5-[3,3-difluoro-1-(oxetan-3-yl)piperidin-4-yl]-4-methyl-8-oxa-2,5,6,12,16,17-hexaazatricyclo[11.3.1.0^3,7]heptadeca-1(16),3,6,13(17),14-pentaene], the IC50 in experiment [1] and in experiment [2] was at most 100 nM in each case.

As to `Cc1c2c(nn1C1CC(OC(F)F)C1)OCC[C@@H](C)Nc1nc(ncc1Cl)N2` (stereo partly drawn) [E378, (11R)-14-Chloro-5-[3-(difluoromethoxy)cyclobutyl]-4,11-dimethyl-8-oxa-2,5,6,12,16,17-hexaazatricyclo[11.3.1.0^3,7] heptadeca-1(16),3,6,13(17),14-pentaene], the half-maximal inhibitory concentration (IC50) in experiment [1] and in experiment [2] was at most 100 nM each time.

On to `Cc1c2c(nn1C1CCN(C3COC3)CC1F)OCCCNc1nc(ncc1Cl)N2` (single isomer, unassigned) [E61, trans-14-chloro-5-[3-fluoro-1-(oxetan-3-yl)piperidin-4-yl]-4-methyl-8-oxa-2,5,6,12,16,17-hexaazatricyclo[11.3.1.0^3,7]heptadeca-1(16),3,6,13(17),14-pentaene], for which the IC50 in experiment [1] and in experiment [2] was at most 100 nM each time.

`Cc1c2c(nn1C1CCN(C3COC3)CC1)OCC[C@@H](C)Nc1nc(ncc1Cl)N2` [E65, (11R)-14-chloro-4,11-dimethyl-5-[1-(oxetan-3-yl)piperidin-4-yl]-8-oxa-2,5,6,12,16,17-hexaazatricyclo[11.3.1.0^3,7]heptadeca-1(16),3,6,13(17),14-pentaene]: the concentration for half-maximal inhibition (IC50) in experiment [1] and in experiment [2] was at most 100 nM in each case.

Consider `Cc1c2c(nn1C1CC(N3CCOCC3)C1)OCCCNc1nc(ncc1Cl)N2` (stereo not shown) [E45, 14-Chloro-4-methyl-5-[3-(morpholin-4-yl)cyclobutyl]-8-oxa-2,5,6,12,16,17-hexaaza tricyclo[11.3.1.0^3,7]heptadeca-1(16),3,6,13(17),14-pentaene], for which the IC50 in experiment [1] and in experiment [2] was at most 100 nM in each case.

Turning to `FC1(F)CN(C2COC2)CCC1n1nc2c(c1Cl)Nc1ncc(Cl)c(n1)NCCCO2` (stereo not shown) [E446, 4,14-Dichloro-5[3,3-difluoro-1-(oxetan-3-yl)piperidin-4-yl]-8-oxa-2,5,6,12,16,17-hexaazatricyclo[11.3.1.0^3,7]heptadeca-1(16),3,6,13(17),14-pentaene], the IC50 in experiment [1] and in experiment [2] was at most 100 nM each time.

For `CCOC1CNc2nc(ncc2Cl)Nc2c(nn(C3CCOCC3)c2C)OC1` (single isomer, unassigned) [E287, 14-Chloro-10-ethoxy-4-methyl-5-(oxan-4-yl)-8-oxa-2,5,6,12,16,17-hexaazatricyclo[11.3.1.0^3,7]heptadeca-1(16),3,6,13(17),14-pentaene], the IC50 in experiment [1] and in experiment [2] was at most 100 nM in each case.

Regarding `Cc1c2c(nn1[C@H]1CCOC1)OCC[C@@H](C)Nc1nc(ncc1Cl)N2` [E46, (11R)-14-chloro-4,11-dimethyl-5-[(3S)-oxolan-3-yl]-8-oxa-2,5,6,12,16,17-hexaaza tricyclo [11.3.1.0^3,7]heptadeca-1(16),3,6,13(17),14-pentaene], the IC50 (in general, the concentration that gives 50% inhibition) in experiment [1] is at most 100 nM; in experiment [2] it was at most 10000 nM.

In the case of `Cc1c2c(nn1CCN1C[C@H]3C[C@@H]1CO3)OCCC(C)Nc1nc(ncc1Cl)N2` (single isomer, unassigned) [E208], the IC50 in experiment [1] and in experiment [2] was at most 100 nM throughout.

As for `Cc1c2c(nn1C1COC1)OCCCNc1nc(ncc1Cl)N2` [E12, 14-Chloro-4-methyl-5-(oxetan-3-yl)-8-oxa-2,5,6,12,16,17-hexaazatricyclo[11.3.1.0^3,7]heptadeca-1(16),3,6,13(17),14-pentaene], the IC50 in experiment [1] and in experiment [2] was at most 100 nM in each case.

As for `C=C(C)c1cnc2nc1NCCCOc1nn(C3CCOCC3)c(C)c1N2` [E429, 4-Methyl-5-(oxan-4-yl)-14-(prop-1-en-2-yl)-8-oxa-2,5,6,12,16,17-hexaazatricyclo[11.3.1.0^3,7]heptadeca-1(16),3,6,13(17),14-pentaene], the IC50 in experiment [1] was above 10000 nM; in experiment [2], at most 10000 nM.

Turning to `Cc1c2c(nn1C1CCOCC1)OCC(F)C(CF)Nc1nc(ncc1Cl)N2` (stereo not shown) [E391, 14-Chloro-10-fluoro-11-(fluoromethyl)-4-methyl-5-(oxan-4-yl)-8-oxa-2,5,6,12,16,17-hexaazatricyclo[11.3.1.0^3,7]heptadeca-1(16),3,6,13(17),14-pentaene], the IC50 in experiment [1] and in experiment [2] was at most 100 nM each time.

Consider `Cc1c2c(nn1C1CCOCC1)OCC[C@@H](C)Nc1nc(ncc1Cl)N2` [E6, (11R)-14-Chloro-4,11-dimethyl-5-(oxan-4-yl)-8-oxa-2,5,6,12,16,17-hexaazatricyclo [11.3.1.0^3,7]heptadeca-1(16),3,6,13(17),14-pentaene], for which the IC50 in experiment [1] and in experiment [2] was at most 100 nM throughout.

Take `Cc1c2c(nn1C1CCCN(C3COC3)C1)OCC[C@@H](C)Nc1nc(ncc1Cl)N2` (single isomer, unassigned) [E67]: the IC50 in experiment [1] and in experiment [2] was at most 100 nM in each case.

Take `Cc1c2c(nn1C1CC(N3C[C@H]4C[C@@H]3CO4)C1)OCC[C@@H](C)Nc1nc(ncc1Cl)N2` (stereo partly drawn) [E317, (11R)-14-Chloro-4,11-dimethyl-5-{3-[(1R,4R)-2-oxa-5-azabicycle [2.2.1]heptan-5-yl]cyclobutyl}-8-oxa-2,5,6,12,16,17-hexaaza tricyclo[11.3.1.0^3,7]heptadeca-1(16),3,6,13(17),14-pentaene]: the half-inhibitory concentration (IC50) in experiment [1] and in experiment [2] was at most 100 nM in each case.

With `COC1CNc2nc(ncc2C(F)(F)F)Nc2c(nn(C3CCOCC3)c2C)OC1` (single isomer, unassigned) [E121, 10-methoxy-4-methyl-5-(oxan-4-yl)-14-(trifluoromethyl)-8-oxa-2,5,6,12,16,17-hexaazatricyclo[11.3.1.0^3,7] heptadeca-1(16),3,6,13(17),14-pentaene], the IC50 in experiment [1] and in experiment [2] was at most 100 nM throughout.

Regarding `Cc1c2c(nn1C(C)C1CCOCC1)OCCC(C)Nc1nc(ncc1Cl)N2` (single isomer, unassigned) [E183, 14-Chloro-4,11-dimethyl-5-[1-(oxan-4-yl)ethyl]-8-oxa-2,5,6,12,16,17-hexaazatricyclo[11.3.1.0^3,7]heptadeca-1(16),3,6,13(17),14-pentaene], the IC50 in experiment [1] and in experiment [2] was at most 100 nM each time.

On to `Cc1c2c(nn1C1COCCC1(F)F)OCCCNc1nc(ncc1Cl)N2` (racemic) [E364, 14-Chloro-5-(4,4-difluorooxan-3-yl)-4-methyl-8-oxa-2,5,6,12,16,17-hexaazatricyclo[11.3.1.0^3,7]heptadeca-1(16),3,6,13(17),14-pentaene], for which the IC50 in experiment [1] and in experiment [2] was at most 100 nM throughout.

`COC1CNc2nc(ncc2Cl)Nc2c(nn(C3CCC(C(F)(F)F)CC3)c2C)OC1` (single isomer, unassigned) [E278, 14-Chloro-10-methoxy-4-methyl-5-[4-(trifluoromethyl)cyclohexyl]-8-oxa-2,5,6,12,16,17-hexaazatricyclo [11.3. 1.0^3,7]heptadeca-1(16),3,6,13(17),14-pentaene]: the IC50 in experiment [1] and in experiment [2] was at most 100 nM in each case.

Regarding `Cc1c2c(nn1C1CCC(N3C[C@H]4C[C@@H]3CO4)CC1)OCCCNc1nc(ncc1Cl)N2` (single isomer, unassigned) [E48], the IC50 in experiment [1] and in experiment [2] was at most 100 nM each time.

On to `Cc1c2c(nn1C(C)(C)C(=O)O)OCCCNc1nc(ncc1Cl)N2` [E189, 2-{14-Chloro-4-methyl-8-oxa-2,5,6,12,16,17-hexaazatricyclo [11.3.1.0^3,7]heptadeca-1(16),3,6,13(17),14-pentaen-5-yl}-2-methylpropanoic acid], for which the IC50 in experiment [1] is above 10000 nM; in experiment [2] it was at most 10000 nM.

As for `Cc1c2c(nn1C1CCOCC1(F)F)OCCCNc1nc(ncc1Cl)N2` (single isomer, unassigned) [E415], the IC50 in experiment [1] and in experiment [2] was at most 100 nM throughout.

Source of the values: patent US20200392158A1, “INHIBITORS OF LEUCINE RICH REPEAT KINASE 2” (GLAXOSMITHKLINE INTELLECTUAL PROPERTY DEVELOPMENT LIMITED, priority 2017, published 2020).
